These results are taken from patent US20070010574A1, “Use of a trpm8-activating substance for the treatment of tumours” (priority 2002, published 2007).

The subject of one experiment is HEK293 TRPM8 cells. Put plainly: tumor growth in hairless mice. Type of experiment: in vivo. The following applies: male hairless mice, HEK293 TRPM8 cells subcutaneous or xenotransplanted in the prostate; 20 mg/kg daily intraperitoneal in DMSO, three weeks; vs untreated control animals. As to the method:
Human TRPM8 cDNA was subcloned in the expression vector pcDNA3.1 and subsequently stably transfected in HEK293 cells. […] To study the effect of menthol or icilin on tumor growth in vivo 2 million HEK293 TRPM8 cells were subcutaneously injected or xenotransplanted in the prostate in male hairless mice. The test groups in each case consisted of 10 animals. The control groups were untreated or treated only with DMSO. The animals were treated by daily intraperitoneal administration of 20 mg/kg body weight icilin or menthol, dissolved in DMSO, over a time interval of three weeks. The growth of the subcutaneously injected cells was measured twice weekly over the entire test duration. Immediately after completion of the trials the “xenotransplants” were resected, weighed and preserved.

Experiment [1] relates to HEK293 cells transfected with TRPM8. Put plainly: soft agar assay, colony formation rate. The format is cell-based. The following applies: TRPM8 transfected HEK293 cells vs wild type and empty vector cells; menthol 10, 100, and 100 μM in medium, substituted every fifth day; after three weeks.
Procedure: HEK293 cells were not transfected, transfected with TRPM8 or transfected with an empty vector. The cells were used in a soft agar assay (see reference Shappel et al., Cancer Research 61:497-503 (2001)). The cells highly individually plated out and immobilized in agar are caused to grow three-dimensionally and independently of the substrate in this way. The colony formation rate permits conclusions regarding the tumorigenicity of the cells to be drawn. 1000 cells were plated out in the 6-hole plate in 2 ml of medium containing soft agar and coated with 1 ml of medium (DMEM with 10% FCS, 2mM glutamine) after the agar congealed. Menthol dissolved in ethanol was added to the medium in end concentrations of 10, 100, and 100 μM and substituted every fifth day. The solvent alone was added as a control. After three weeks the number of colonies formed was determined under the microscope.

On to `O=C1NC(c2cccc([N+](=O)[O-])c2)=CCN1c1ccccc1O` [icilin], for which the tumor growth result in the experiment on HEK293 TRPM8 cells is on record as “distinctly less tumor growth”.

Regarding `CC1CCC(C(C)C)C(O)C1` (stereo not drawn) [menthol], the tumor growth entry in the experiment with HEK293 TRPM8 cells is “distinctly less tumor growth”. Moreover, in experiment [1], the “number of colonies formed (colony formation rate)” value was “distincly less colony formation”.
